Measured values: patent EP2243478A1, “PHARMACEUTICAL COMPOSITION COMBINING AN ANTIARTHRITIC AGENT AND AN INTERLEUKIN-1 INHIBITING AGENT, WHICH CAN BE USED TO CONTROL AND TREAT OSTEOARTHRITIS AND RELATED DISEASES” (World Trade Import-Export, WTIE A.G., priority 2007, dated 2009)

What was measured:
patients with hip OA = assay: comparative clinical study of Diacerein, Chondroitin and the combination Diacerein/Chondroitin, 6 month follow-up; assay type: in vivo
Experimental: A comparative clinical study in patients with hip OA was carried out with a 6 month term for follow-up. The study compared the efficacy of single Diacerein administration, single chondroitin and a combination of Diacerein/Chondroitin. The study included 120 patients which were divided in 3 treatment groups: • Groups 1: received Diacerein 50 mg administration twice a day. • Group 2: received Chondroitin 600 mg administration twice a day. • Group 3 : received Diacerein 50 mg /Chondroitin 600 mg administration twice a day.
Patients fulfilled with the inclusion criteria from the American Rheumatology Academy. Inclusion criteria were: • Symptomatic disease presence, defined as daily hip pain at least during the last two months. • A functional pain Lequesne index at least of 3 points. • Radiographic criteria were a joint space between 1 and 3 mm (without exceeding 3 mm) or less than 0.5 mm qf contralateral hip.
Joint hip space was measured through a prior pelvic radiography reading center, using a graded 0.1 mm magnification crystal. Start and end of treatment was radiographically assessed comparing the affected vs contralateral hip.
Laboratory analyses were carried out at the beginning of the study and on 6 months of treatment, assessing liver and kidney performance.

[1] = in vivo; cited from earlier work
[2] = cited from earlier work
pain = settings: dose from 2 to 4 gr/day; cited from earlier work
[3] = cited from earlier work; remark: listed apart in the source

CC(=O)Oc1cccc2c1C(=O)c1c(OC(C)=O)cc(C(=O)O)cc1C2=O [Diacerein]
Patient percentage with radiographic progression (joint space loss at least of 0.5 mm) (patients with hip OA; Data from first laboratory analysis, P= 0.035): 51.6% | Patient percentage with radiographic progression (joint space loss at least of 0.5 mm) (patients with hip OA; Data upon 6 month treatment completion, P= 0.006): 46.7% | patients cancelled the treatment (because of inefficacy) (patients with hip OA; after two months of treatment (time printed for Group 1), forty patients per group, twice a day oral): 6 patients | joint space, Average ± SD (patients with hip OA; at 6 months of treatment, hip): 0.17 ± 0.24 mm/6 months | clearance half-life in plasma [1]: 5 to 7 h | slow action start, not significant until ([2]; after treatment): 4 weeks | effect is maintained after having cancelled the treatment ([2]; in vivo): ≥ 2 months

CC(=O)Nc1ccc(O)cc1 [Paracetamol]
controlling pain in patients (pain): 40 % of patients

O=C(O)c1cc(O)c2c(c1)C(=O)c1cccc(O)c1C2=O [Rein, rein]
bound to plasma proteins [3]: 99%
